Our source for the Ki values is ChEMBL document CHEMBL3585311, “Computational design and chemometric QSAR modeling of Plasmodium falciparum carbonic anhydrase inhibitors” (Bioorg Med Chem Lett, 2014).

A short description of the test: Inhibition of Plasmodium falciparum recombinant carbonic anhydrase.
In the case of `NS(=O)(=O)c1ccc(CCNC(=O)c2cc3ccccc3oc2=O)cc1`, the Ki (usually the equilibrium dissociation constant of an inhibitor or competing ligand from its target) worked out at 13.2 µM. With `NS(=O)(=O)c1ccc(CNC(=O)c2cc3ccccc3oc2=O)cc1`, the Ki is 5.05 µM. With `CC(C)(O)Nc1ccc(S(N)(=O)=O)cc1` the figure was 2.22 µM. With `COC(=O)NS(=O)(=O)c1ccc(NC(=S)Nc2ccc(S(N)(=O)=O)cc2)cc1` the figure was 4.62 µM; with `NS(=O)(=O)c1nnc(NS(=O)(=O)C(F)(F)C(F)(F)C(F)(F)C(F)(F)C(F)(F)C(F)(F)C(F)(F)C(F)(F)F)s1`, 0.192 µM.

Consider `NS(=O)(=O)c1ccc(NC(=S)NC(=O)Nc2ccc(CC(Cl)Cl)cc2)cc1`, for which the Ki was determined as 0.756 µM. Turning to `COc1ccc2cncc(CC(=O)Nc3ccccc3S(N)(=O)=O)c2c1`, the Ki is 2.66 µM. Turning to `COc1ccc2oc(=O)cc(CC(=O)c3cc(C(F)(F)F)c(S(N)(=O)=O)cc3S(N)(=O)=O)c2c1`, the Ki is 2.52 µM. In the case of `NS(=O)(=O)c1ccc(NNC(=O)c2cc3ccccc3oc2=O)cc1`, the Ki stood at 4.06 µM. With `NS(=O)(=O)c1nnc(NC(=S)NC(=O)Nc2ccccc2)s1` the figure was 6.73 µM; with `NS(=O)(=O)c1ccc(Nc2nocc2Cl)cc1`, 0.164 µM. With `NS(=O)(=O)c1ccc(NC(=S)NC(=O)Nc2ccc(Cl)c(Cl)c2)cc1` the figure was 0.18 µM; with `NS(=O)(=O)c1cc(S(N)(=O)=O)c(C(F)(F)F)cc1NC(=O)c1cc2ccccc2oc1=O`, 9.03 µM; with `COc1ccc2oc(=O)cc(CC(=O)NNc3ccc(S(N)(=O)=O)cc3)c2c1`, 3.51 µM. With `NS(=O)(=O)c1ccc(CNC(=O)N(c2ccccc2)c2ccccc2)cc1` the figure was 6.03 µM; with `Cc1ccc(NC(=O)NC(=S)Nc2ccc(S(N)(=O)=O)cc2)s1`, 0.505 µM. Regarding `NS(=O)(=O)c1nnc(NC(=O)c2c(F)c(F)c(F)c(F)c2F)s1`, the Ki worked out at 3.44 µM.

Take `Cn1nc(S(N)(=O)=O)s/c1=N/C(=O)c1c(F)c(F)c(F)c(F)c1F`: the Ki worked out at 6.87 µM. With `Cc1ccc(C)c(N(C(=O)Nc2ccccc2S(N)(=O)=O)c2ccccc2)c1F` the figure was 3.32 µM; with `NC(=S)Nc1ccc(S(N)(=O)=O)cc1`, 2.1 µM; with `CC(Cl)(Cl)c1ccc(NC(=O)NC(=S)Nc2ccc(S(N)(=O)=O)cc2)cc1`, 0.452 µM. In the case of `NS(=O)(=O)c1ccc(Nc2ncc(Cl)s2)cc1`, the Ki stood at 0.164 µM. With `Cc1cc(NC(=O)NC(=S)Nc2ccc(S(N)(=O)=O)cc2)c(Cl)c(C)c1Cl`, the Ki was 0.514 µM.

`CCN(CC)C(=S)SNCc1ccc(S(N)(=O)=O)cc1`: the Ki stood at 8.39 µM. `CCc1c(Cl)ccc(NC(=O)NC(=S)Nc2ccc(S(N)(=O)=O)cc2)c1Cl`: the Ki amounted to 0.464 µM. In the case of `NS(=O)(=O)c1ccccc1NC(=O)N(c1ccccc1)c1ccc(F)cc1`, the Ki came out at 2.26 µM.

For `Cc1cc(Cl)cc(C)c1NC(=O)NC(=S)Nc1ccc(S(N)(=O)=O)cc1`, the Ki stood at 0.596 µM. For `NS(=O)(=O)c1ccccc1NC(=O)c1cc2ccccc2oc1=O` the value was 18.5 µM; for `NS(=O)(=O)c1ccc(Nc2cscn2)cc1`, 0.237 µM.

As for `NS(=O)(=O)c1ccccc1NS(=O)(=O)c1c(F)c(F)c(F)c(F)c1F`, the Ki was found to be 3.06 µM. For `COc1ccc2oc(=O)cc(CC(=O)Nc3ccccc3S(N)(=O)=O)c2c1`, the Ki was 1.44 µM.

Regarding `NS(=O)(=O)c1ccc(Nc2ncsc2Cl)cc1`, the Ki was determined as 0.164 µM. With `NS(=O)(=O)c1ccccc1NC(=O)N(c1ccccc1)c1ccccc1` the figure was 1.99 µM; with `COc1cc(CC(=O)Nc2ccccc2S(N)(=O)=O)c2ccccc2c1Cl`, 4.28 µM.

Regarding `NS(=O)(=O)c1ccc(NS(=O)(=O)c2ccc(NC(=O)N(c3ccccc3)c3ccccc3)cc2)cc1`, the Ki is 16.5 µM.

Consider `NS(=O)(=O)c1nnc(NS(=O)(=O)c2c(F)c(F)c(F)c(F)c2F)s1`, for which the Ki was 2.58 µM. Take `Cc1cc(F)c(C)c(NC(=O)NC(=S)Nc2ccc(S(N)(=O)=O)cc2)c1`: the Ki came out at 0.518 µM. Take `Cc1cc(C)cc(N(C(=O)Nc2ccccc2S(N)(=O)=O)c2ccccc2)c1`: the Ki worked out at 4.09 µM. On to `NS(=O)(=O)c1ccccc1NC(=O)N(c1ccccc1)c1cccc(Cl)c1`, for which the Ki is 1.65 µM. As for `COc1ccc2oc(=O)cc(CC(=O)Nc3cccc(S(N)(=O)=O)c3)c2c1`, the Ki stood at 4.58 µM. With `NS(=O)(=O)c1ccc(NC(=S)NC(=O)Nc2ccc(Cl)cc2)cc1` the figure was 0.327 µM; with `Cc1c(NC(=O)NC(=S)Nc2ccc(S(N)(=O)=O)cc2)cn2ncccc12`, 0.433 µM. With `NS(=O)(=O)c1ccc(NC(=O)Nc2ccc(Cl)c(Cl)c2)cc1` the figure was 5.58 µM; with `NS(=O)(=O)c1ccc(/N=C/c2ccc(Br)c3ccccc23)cc1`, 4.16 µM. For `NS(=O)(=O)c1ccc(NC(=O)c2cc3ccccc3oc2=O)cc1` the value was 5.82 µM; for `CCN(CC)C(=S)SNc1ccc(S(N)(=O)=O)cc1`, 3 µM; for `NS(=O)(=O)c1ccc(NC(=S)NC(=O)Nc2cccc(F)c2)cc1`, 0.424 µM. For `NS(=O)(=O)c1ccc(NC(=O)c2ccc(S(N)(=O)=O)cc2)cc1`, the Ki was determined as 3.05 µM. For `CC(F)(F)Nc1ccc(S(N)(=O)=O)cc1` the value was 0.74 µM.
